Reference: ChEMBL document CHEMBL1201862, “PubChem BioAssay data set” (2004)
The source made the active and inactive calls.

What was measured:
[1] = OVCAR-3 cell viability loss – plate reader, dry powder samples, PAX8 inhibitor project, dose response (AID 743044); assay type: functional, cell-based
Paired box protein Pax-8 = Paired box protein Pax-8 (Homo sapiens, UniProt Q06710); assay: PAX8 transcriptional activity inhibition in RMG-I – RMG-I cells, luciferase, cherry-pick, dose response (AID 687027); assay type: functional, cell-based;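 also: luciferase reporter driven by Pax8 target thyroperoxidase promoter measured by SteadyGlo luminescence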
Sequence of Paired box protein Pax-8 (Q06710 whole entry): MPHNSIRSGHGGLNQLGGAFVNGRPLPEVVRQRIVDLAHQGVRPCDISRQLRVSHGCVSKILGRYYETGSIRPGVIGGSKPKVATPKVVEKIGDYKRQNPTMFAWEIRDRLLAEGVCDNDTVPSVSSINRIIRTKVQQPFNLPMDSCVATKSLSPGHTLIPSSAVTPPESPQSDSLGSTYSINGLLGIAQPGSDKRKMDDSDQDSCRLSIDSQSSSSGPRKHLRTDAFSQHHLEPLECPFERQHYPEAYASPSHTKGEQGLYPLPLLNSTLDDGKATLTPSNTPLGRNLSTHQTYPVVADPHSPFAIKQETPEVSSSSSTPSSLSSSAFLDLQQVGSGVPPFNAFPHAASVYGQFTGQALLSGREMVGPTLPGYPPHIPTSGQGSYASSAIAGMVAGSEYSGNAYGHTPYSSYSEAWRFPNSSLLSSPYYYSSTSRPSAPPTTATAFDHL

[2] = OVCAR8 cell viability loss – plate reader, dry powder samples, PAX8 project, dose response (AID 743197); assay type: functional, cell-based; settings: OVCAR-8
[3] = A2780 cell killing – plate reader, dry powder samples, cytotoxicity control, dose response (AID 743046); assay type: functional, cell-based
[4] = NIH3T3 cell viability loss – ATP luminescence, mouse fibroblasts, counter-screen, dose response (AID 2010); assay type: functional, cell-based;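 also: cells exposed to compound for about 90 hours before reading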
[5] = Trypanosoma cruzi growth suppression in host cells – NIH3T3 host cells, beta-gal luminescence, confirmation (AID 2044); assay type: functional, cell-based;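 also: intracellular parasites grown in NIH/3T3 mouse fibroblasts as host cells; luminescent beta-galactosidase reporter signal from transgenic T. cruzi replicating inside host cells; inhibitors lower the luminescence signal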
[6] = target: T1, Apoptotic protease-activating factor 1 (Homo sapiens, UniProt O14727); assay type: functional
T1 sequence (O14727 whole entry): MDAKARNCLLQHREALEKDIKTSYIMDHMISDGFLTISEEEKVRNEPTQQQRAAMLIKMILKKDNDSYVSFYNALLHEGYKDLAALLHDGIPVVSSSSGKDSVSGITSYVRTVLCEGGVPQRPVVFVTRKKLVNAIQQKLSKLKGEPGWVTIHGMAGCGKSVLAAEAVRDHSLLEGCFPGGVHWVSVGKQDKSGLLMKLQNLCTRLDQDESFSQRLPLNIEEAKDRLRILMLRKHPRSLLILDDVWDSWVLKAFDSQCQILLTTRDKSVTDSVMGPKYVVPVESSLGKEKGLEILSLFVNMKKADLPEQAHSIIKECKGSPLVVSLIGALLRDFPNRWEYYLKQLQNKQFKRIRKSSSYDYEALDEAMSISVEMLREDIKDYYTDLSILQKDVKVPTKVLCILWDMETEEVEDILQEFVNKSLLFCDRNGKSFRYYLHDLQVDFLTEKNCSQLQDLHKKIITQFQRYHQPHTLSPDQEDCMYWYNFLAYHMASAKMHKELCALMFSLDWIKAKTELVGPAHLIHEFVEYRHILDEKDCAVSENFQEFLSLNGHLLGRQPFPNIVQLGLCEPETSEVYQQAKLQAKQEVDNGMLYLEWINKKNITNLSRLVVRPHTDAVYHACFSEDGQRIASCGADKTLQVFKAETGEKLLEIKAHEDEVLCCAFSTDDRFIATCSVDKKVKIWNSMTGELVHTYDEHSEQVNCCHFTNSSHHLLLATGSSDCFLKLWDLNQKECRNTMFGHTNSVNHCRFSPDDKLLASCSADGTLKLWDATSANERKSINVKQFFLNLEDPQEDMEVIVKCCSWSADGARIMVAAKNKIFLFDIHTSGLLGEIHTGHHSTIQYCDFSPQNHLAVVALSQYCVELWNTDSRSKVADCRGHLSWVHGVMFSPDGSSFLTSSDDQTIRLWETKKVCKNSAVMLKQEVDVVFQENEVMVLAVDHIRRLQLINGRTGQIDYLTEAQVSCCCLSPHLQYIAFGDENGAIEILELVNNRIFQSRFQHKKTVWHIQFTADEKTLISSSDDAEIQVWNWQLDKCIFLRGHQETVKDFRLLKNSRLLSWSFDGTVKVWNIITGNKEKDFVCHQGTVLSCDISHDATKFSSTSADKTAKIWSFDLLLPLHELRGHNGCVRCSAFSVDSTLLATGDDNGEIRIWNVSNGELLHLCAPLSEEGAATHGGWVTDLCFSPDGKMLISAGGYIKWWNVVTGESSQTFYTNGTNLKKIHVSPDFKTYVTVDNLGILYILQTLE

[7] = system: Streptococcus sp. 'group A'; assay: Streptococcus pyogenes SK(-)GAS viability under kanamycin – luminescence, BacTiterGlo, confirmation, counter-screen for streptokinase expression inhibitor project, dose response (AID 1900); assay type: functional, organism-based
[8] = NIH-3T3 fibroblast cytotoxicity, dose response, cytotoxicity control, cell-based, fluorescence, Alamar Blue, secondary assay (AID 2327); assay type: functional;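 also: NIH-3T3 mouse fibroblasts cultured with fluconazole at 8 µg/mL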
Streptokinase A = target: T2, Streptokinase A (Streptococcus pyogenes serotype M1, UniProt P10520); assay: viability-normalized secreted streptokinase activity reduction – plasminogen activation absorbance, OD405, dose response (AID 1914); assay type: functional, Streptococcus pyogenes M1 GAS;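 also: secreted streptokinase activity via plasminogen activation per viability signal from cell pellet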
T2 sequence (P10520 whole entry): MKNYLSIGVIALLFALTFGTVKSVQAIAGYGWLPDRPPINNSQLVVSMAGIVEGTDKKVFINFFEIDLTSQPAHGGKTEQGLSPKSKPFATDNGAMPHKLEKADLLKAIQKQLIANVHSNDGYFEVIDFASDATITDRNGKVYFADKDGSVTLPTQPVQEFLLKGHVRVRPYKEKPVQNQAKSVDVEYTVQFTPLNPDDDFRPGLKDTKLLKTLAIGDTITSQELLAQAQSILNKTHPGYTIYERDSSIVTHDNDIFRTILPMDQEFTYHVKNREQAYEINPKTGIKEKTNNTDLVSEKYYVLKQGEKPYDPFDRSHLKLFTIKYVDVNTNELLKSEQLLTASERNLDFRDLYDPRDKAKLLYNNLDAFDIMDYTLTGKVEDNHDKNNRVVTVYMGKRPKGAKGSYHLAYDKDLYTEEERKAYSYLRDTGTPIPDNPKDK

[9] = target: T3, Tyrosyl-DNA phosphodiesterase 2 (Homo sapiens, UniProt O95551); assay: potency against TDP2 phosphodiesterase activity – biochemical, epi absorbance, IC50, dose response (AID 743297)
T3 sequence (O95551 whole entry): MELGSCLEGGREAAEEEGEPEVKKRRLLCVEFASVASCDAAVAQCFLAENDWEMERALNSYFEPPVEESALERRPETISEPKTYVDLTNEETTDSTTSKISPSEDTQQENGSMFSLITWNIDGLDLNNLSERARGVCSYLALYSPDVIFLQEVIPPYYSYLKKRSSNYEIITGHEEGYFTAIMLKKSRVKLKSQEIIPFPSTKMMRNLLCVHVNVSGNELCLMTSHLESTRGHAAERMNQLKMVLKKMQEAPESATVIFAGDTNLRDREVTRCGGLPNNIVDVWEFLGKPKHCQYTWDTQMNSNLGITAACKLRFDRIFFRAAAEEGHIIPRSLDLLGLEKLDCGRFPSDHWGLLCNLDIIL

Streptococcus = assay: GAS UMAA2166 growth inhibition – luminescence, BacTiterGlo, counter-screen for streptokinase expression inhibitor project, dose response (AID 1915); assay type: functional, organism-based;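 also: potency for reduction of bacterial viability or growth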
[10] = fluconazole-exposed Candida albicans growth modulators – fluorescence, retest, confirmation (AID 2467); assay type: functional, cell-based
[11] = M. tuberculosis H37Rv growth inhibitors, H37Rv strain (AID 1626); assay type: functional
Aminopeptidase N = target: T4, Aminopeptidase N (Plasmodium falciparum FcB1/Columbia, UniProt O96935); assay: malaria alanyl aminopeptidase activity blockers – biochemical, fluorogenic H-Leu-NHMec substrate, 1536-well (AID 1445); design: species or system Plasmodium falciparum 3D7, 3D7
T4 sequence (O96935 whole entry): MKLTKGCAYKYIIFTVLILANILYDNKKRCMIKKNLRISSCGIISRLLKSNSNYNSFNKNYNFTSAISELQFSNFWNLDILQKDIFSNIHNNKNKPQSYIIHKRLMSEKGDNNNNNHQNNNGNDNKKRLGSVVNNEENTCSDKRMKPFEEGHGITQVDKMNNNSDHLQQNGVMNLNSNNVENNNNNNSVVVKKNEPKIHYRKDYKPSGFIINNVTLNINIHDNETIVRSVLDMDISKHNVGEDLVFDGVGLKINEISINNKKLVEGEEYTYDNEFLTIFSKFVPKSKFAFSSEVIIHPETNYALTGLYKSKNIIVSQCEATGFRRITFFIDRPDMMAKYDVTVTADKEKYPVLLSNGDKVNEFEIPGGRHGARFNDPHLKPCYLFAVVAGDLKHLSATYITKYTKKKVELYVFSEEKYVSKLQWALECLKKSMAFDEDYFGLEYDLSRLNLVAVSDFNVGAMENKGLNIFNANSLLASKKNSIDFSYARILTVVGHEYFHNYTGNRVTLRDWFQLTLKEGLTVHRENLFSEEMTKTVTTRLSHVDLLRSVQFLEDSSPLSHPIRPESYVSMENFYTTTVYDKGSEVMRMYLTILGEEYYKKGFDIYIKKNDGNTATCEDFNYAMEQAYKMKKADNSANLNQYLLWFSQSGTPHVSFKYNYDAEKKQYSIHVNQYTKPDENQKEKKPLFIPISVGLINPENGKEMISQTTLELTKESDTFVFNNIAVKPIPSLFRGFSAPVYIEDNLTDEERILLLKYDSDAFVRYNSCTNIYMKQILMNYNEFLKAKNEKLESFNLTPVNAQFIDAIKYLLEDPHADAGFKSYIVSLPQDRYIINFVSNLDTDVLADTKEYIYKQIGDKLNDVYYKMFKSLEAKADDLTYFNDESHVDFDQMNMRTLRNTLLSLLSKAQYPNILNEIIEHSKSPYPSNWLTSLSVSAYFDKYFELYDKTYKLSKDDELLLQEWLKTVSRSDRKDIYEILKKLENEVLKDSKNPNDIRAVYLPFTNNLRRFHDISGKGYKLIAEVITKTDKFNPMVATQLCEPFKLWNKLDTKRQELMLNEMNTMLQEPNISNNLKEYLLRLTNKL

[12] = viability loss in Vero cells – cytotoxicity control for Vif-APOBEC3G degradation inhibitor project, dose response (AID 1117358); assay type: functional; settings: Vero
[13] = loss of viability in HepG2 cells – cell-based, CellTiter-Glo, cherry-picked, cytotoxicity control for Shn3 inhibitor project, dose response (AID 624134); assay type: functional
[14] = reduced cellular PGC1a acetyl-lysine signal – cell-based, cherry-picked samples, dose response (AID 720514); assay type: functional;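 also: potency may reflect raised or lowered acetylation signal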
[15] = reduction of Shn3 3'UTR-driven luciferase in osteoblasts – cell-based, Clone20 osteoblasts, firefly luciferase, cherry-picked, dose response (AID 624132); assay type: functional;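 also: firefly luciferase luminescence from reporter carrying the Shn3 3'UTR in osteoblasts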
[16] = non-specific 3'UTR reporter inhibition in Clone20-Shn3RL – cell-based, Renilla luciferase, cherry-picked, counter-screen for Shn3 inhibitor project, dose response (AID 624133); assay type: functional
[17] = Reduced DLD-1 viability, concentration-response, CellTiter-Glo luminescence (AID 1117352); assay type: functional
[18] = SNU-C1 cell viability reduction, dose response, CellTiter-Glo luminescence (AID 1117323); assay type: functional, cell-based
[19] = CellTiter-Glo luminescence survival assay, SW480 colon tumor line, concentration-response curve, half-maximal inhibitory concentration (AID 1117338); assay type: functional
[20] = cytotoxicity toward HCT116 cells – cell-based, CellTiter-Glo luminescence, IC50, dose response (AID 1117332); assay type: functional; settings: HCT-116
[21] = cytotoxicity toward Colo320 cells – cell-based, CellTiter-Glo luminescence, IC50, dose response (AID 1117334); assay type: functional; settings: COLO 320
[22] = RKO cell viability reduction, dose response, CellTiter-Glo luminescence (AID 1117322); assay type: functional
[23] = cytotoxicity toward HT-29 cells – cell-based, CellTiter-Glo luminescence, IC50, dose response (AID 1117330); assay type: functional

Which results are given for C[C@@H]1CCCCO[C@@H](CN(C)Cc2ccc(Cl)c(Cl)c2)[C@H](C)CN([C@H](C)CO)C(=O)c2cc(NC(=O)c3ccccc3)ccc2O1?
AC50 [1]: 3.16 µM (active); AC50 (Paired box protein Pax-8): 14 µM (active); AC50 [2]: 27.5 µM (active); AC50 [3]: 33.8 µM (active)

Which results are given for CC(=O)c1cccc(CN2CCCC(CCC(=O)NCc3ccccc3F)C2)c1 (stereo unspecified)?
EC50 [4]: > 60 µM (not active); EC50 [5]: < 0.1 µM (active); EC50 (cells): 0.04 µM (active)

With Oc1c(Br)cc(Br)cc1CNc1cccc2cccnc12 as the molecule, how does the IC50 [6] read?
Its IC50 is 40.2 µM (active).

What about the EC50 [7] of the same molecule?
The EC50 was 6.08 µM (active).

And the EC50 [8]?
The EC50 was 101 µM (active).

And the EC50 (Streptokinase A)?
Its EC50 is > 150 µM (not active).

And the IC50 [9]?
Its IC50 is > 128 µM (inactive).

What about the EC50 (Streptococcus) of the same molecule?
Its EC50 is 9.25 µM (active).

And the EC50 [10]?
The EC50 was > 38 µM (not active).

With CCOc1ccc(NC(=O)N(C2CCCCCC2)C2CCN(C(C)=O)CC2)cc1 as the molecule, how does the IC50 [11] read?
Its IC50 is > 100 µM (active).

With Cc1ccc(-c2nn(C)c(=O)c3ccccc23)cc1CNC(=O)c1ccccc1 as the molecule, how does the IC50 (Aminopeptidase N) read?
Its IC50 is 7.39 µM (active).

Which CC50 [12] does the source give for Cc1cccc(N2CCN(C(=O)c3ccncc3)CC2)c1C here?
Its CC50 is > 40 µM (active).

Which results are given for COc1ccccc1NC(=O)Cn1c(C)cc(=O)c2cccc(OC)c21?
AC50 [13]: 48.1 µM (active); AC50 [14]: 35.8 µM (active); AC50 [15]: 3.16 µM (active); AC50 [16]: 4.46 µM (active)

For CCN(Cc1ccc(C#CCCO)cc1)CC1CCCN(CCc2cccc(F)c2)C1 (stereo unspecified), which EC50 [4] is on record?
Its EC50 is 8.84 µM (active).

What about the EC50 [5] of the same molecule?
Its EC50 is < 0.1 µM (active).

And the EC50 (cells)?
The EC50 was 0.369 µM (active).

For O=C(O)c1ccccc1S [THIOSALICYLIC ACID], which IC50 [17] is on record?
The IC50 was > 20 µM (inactive).

And the IC50 [18]?
Its IC50 is > 20 µM (inactive).

And the IC50 [19]?
Its IC50 is > 20 µM (inactive).

What about the IC50 [20] of the same molecule?
Its IC50 is > 20 µM (inactive).

What about the IC50 [21] of the same molecule?
Its IC50 is > 20 µM (inactive).

What about the IC50 [22] of the same molecule?
The IC50 was > 20 µM (inactive).

And the IC50 [23]?
The IC50 was > 20 µM (inactive).
